Six compounds from US7012090B1, “Pyranoindoles for treating glaucoma” (Alcon, Inc., priority 2000, dated 2006) can be followed below.

In one series the target is brain 5-HT2 receptors (Rattus norvegicus, UniProt P14842). Kind of series: 5HT2 Receptor Binding Assay ([125I]DOI competition). Particulars: inhibition of [125I]DOI binding, rat or human cerebral cortex homogenates. The method, then:
5HT2 Receptor Binding Assay
Aliquots of post mortem rat or human cerebral cortex homogenates (400 μl) dispersed in 50 mM TrisHCl buffer (pH 7.4) are incubated with [^125I]DOI (80 pM final) in the absence or presence of methiothepin (10 μM final) to define total and non-specific binding, respectively, in a total volume of 0.5 ml. The assay mixture is incubated for 1 hour at 23° C. in polypropylene tubes and the assays terminated by rapid vacuum filtration over Whatman GF/B glass fiber filters previously soaked in 0.3% polyethyleneimine using ice-cold buffer. Test compounds (at different concentrations) are substituted for methiothepin. Filter-bound radioactivity is determined by scintillation spectrometry on a beta counter. The data are analyzed using a non-linear, iterative curve-fitting computer program [Trends Pharmacol. Sci., 16, 413 (1995)] to determine the compound affinity parameter. The concentration of the compound needed to inhibit the [^125I]DOI binding by 50% of the maximum is termed the IC50 value.

A further series deals with T1, 5-HT2 receptor (Rattus norvegicus, UniProt P14842).
T1 construct: [^3H]myo-inositol-labeled A7r5 rat vascular smooth muscle cells; endogenous in cells; host or cells: A7r5 rat vascular smooth muscle cells
Kind of series: 5-HT2 Functional Assay: Phosphoinositide (PI) Turnover Assay. In kind it is cell-based. To be noted: for EC50: [3H]inositol phosphate production in A7r5 rat vascular smooth muscle cells; for Emax: A7r5 cells, relative to 5-HT set at 100%, read-out: Efficacy (Emax, %). How it is done: 5-HT2 Functional Assay: Phosphoinositide (PI) Turnover Assay
The relative agonist activity of serotonergic compounds at the 5-HT2 receptor can be determined in vitro using the ability of the compounds to stimulate the production of [^3H]inositol phosphates in [^3H]myo-inositol-labeled A7r5 rat vascular smooth muscle cells by their ability to activate the enzyme phospholipase C. These cells are grown in culture plates, maintained in a humidified atmosphere of 5% CO2 and 95% air and fed semi-weekly with Dulbecco's modified Eagle medium (DMEM) containing 4.5 g/l glucose and supplemented with 2 mM glutamine, 10 μg/ml gentamicin, and 10% fetal bovine serum. For the purpose of conducting the phosphoinositide (PI) turnover experiments, the A7r5 cells are cultured in 24-well plates as previously [J. Pharmacol. Expt. Ther., 286, 411 (1998)]. Confluent cells are exposed for 24-30 hrs to 1.5 μCi [^3H]-myo-inositol (18.3 Ci/mmol) in 0.5 ml of serum-free medium. Cells are then rinsed once with DMEM/F-12 containing 10 mM LiCl prior to incubation with the test agent (or solvent as the control) in 1.0 ml of the same medium for 1 hr at 37° C., after which the medium is aspirated and 1 ml of cold 0.1 M formic acid added to stop the reaction. The chromatographic separation of [^3H]-inositol phosphates ([^3H]-IPs) on an AG- 1-X8 column is performed as previously described [J. Pharmacol. Expt. Ther. 286, 411 (1998)] with sequential washes with H2O and 50 mM ammonium formate, followed by elution of the total [^3H]-IPs fraction with 1.2 M ammonium formate containing 0.1 M formic acid. The eluate (4 ml) is collected, mixed with 15 ml scintillation fluid, and the total [^3H]-IPs determined by scintillation counting on a beta-counter. Concentration-response data are analyzed by the sigmoidal fit function of the Origin Scientific Graphics software (Microcal Software, Northampton, Mass.) to determine agonist potency (EC50 value) and efficacy (Emax). Serotonin (5-HT) is used as a positive control (standard) agonist compound and the efficacy of test compounds is compared to that of 5-HT (set at 100%). The concentration of the compound needed to stimulate the production of [^3H]-IPs by 50% of the maximum response is termed the EC50 value.

For series [1], the system named is Lasered (Hypertensive) Eyes of Conscious Cynomolgus Monkeys. Kind of series: Acute IOP Response in Lasered (Hypertensive) Eyes of Conscious Cynomolgus Monkeys. To be noted: lasered eye. In kind it is in vivo, Cynomolgus monkey. How it is done:
Acute IOP Response in Lasered (Hypertensive) Eyes of Conscious Cynomolgus Monkeys
Intraocular pressure (IOP) was determined with an Alcon Pneumatonometer after light corneal anesthesia with 0.1% proparacaine. Eyes were washed with saline after each measurement. After a baseline IOP measurement, test compound was instilled in one 30 μL aliquot to the right eyes only of nine cynomolgus monkeys. Vehicle was instilled in the right eyes of six additional animals. Subsequent IOP measurements were taken at 1, 3, and 6 hours. A compound is considered efficacious in this model of ocular hypertension if there is a decrease in the baseline IOP of the lasered eye (O.D.) of at least 20% following topical administration.

The mark [2] stands for this setting: 1 hour after dose, 300 μg topical.
[3] abbreviates: 3 hours after dose, 300 μg topical.
Setting [4] is: 6 hours after dose, 300 μg topical.

Counter-ions that a name gives are not always drawn.

T1 sequence (P14842 whole entry): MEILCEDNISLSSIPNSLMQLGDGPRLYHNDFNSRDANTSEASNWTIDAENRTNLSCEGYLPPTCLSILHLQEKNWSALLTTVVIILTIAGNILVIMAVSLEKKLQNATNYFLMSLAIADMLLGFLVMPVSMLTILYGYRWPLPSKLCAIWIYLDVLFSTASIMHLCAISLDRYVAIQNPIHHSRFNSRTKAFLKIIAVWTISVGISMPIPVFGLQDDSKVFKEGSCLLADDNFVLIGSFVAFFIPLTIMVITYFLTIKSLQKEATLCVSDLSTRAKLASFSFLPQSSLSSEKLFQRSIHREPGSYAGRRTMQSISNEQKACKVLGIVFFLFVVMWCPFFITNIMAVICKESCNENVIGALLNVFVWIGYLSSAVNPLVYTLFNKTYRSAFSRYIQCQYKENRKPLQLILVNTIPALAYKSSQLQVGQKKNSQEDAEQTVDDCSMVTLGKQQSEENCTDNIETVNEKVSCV
brain 5-HT2 receptors, sequence (P14842 whole entry): as above

With `COc1cc(C[C@@H](C)N)c(OC)cc1I` [(R)-DOI, reference compound], the half-maximal inhibitory concentration (IC50) (commonly the point on the concentration scale where inhibition reaches its midpoint) on brain 5-HT2 receptors amounted to 0.46 nM. On 5-HT2 receptor, the response was half-maximal at 27.7 nM (EC50). For the same compound, the “Percent IOP Reduction ± SEM” value in series [1] (1 hour after dose, 100 μg topical) is reported as 11.0 ± 4.98%; in series [1] (3 hours after dose, 100 μg topical), 25.3 ± 2.97%; in series [1] (6 hours after dose, 100 μg topical) it was 34.4 ± 4.98%.
As to `CC(N)Cc1cn(C)c2ccc3c(c12)CCCO3` (stereo not drawn) [Example 1, 1-Methyl-2-(3-methyl3,7,8,9-tetrabydro-pyrano[3,2-e]indol-1-yl)-ethylamine hydrochloride], the Emax – broadly, the maximal effect, on the per cent scale that the assay sets – at 5-HT2 receptor was found to be 119%. Moreover, the EC50 (as a rule, the concentration needed to bring the measured effect to its halfway point) at 5-HT2 receptor worked out at 189 nM. For the same compound, the “Percent IOP Reduction ± SEM” value stood at 18.8 ± 3.31% in series [1] (setting [2]), 28.0 ± 5.20% in series [1] (setting [3]) and 26.1 ± 5.35% in series [1] (setting [4]).
Turning to `CC(N)Cc1c[nH]c2ccc3c(c12)CC(O)CO3.Cl` (stereo not drawn) [Example 6, 1-(2-Aminopropyl)-3,7,8,9-tetrahydro-pyrano[3,2-e]indol-8-ol hydrochloride], the melting point (commonly the temperature, or range, at which the solid turns liquid) fell in the range of 187 to 192 °C. On 5-HT2 receptor, the maximum response (Emax) stood at 92% and the response was half-maximal at 300 nM (EC50).
`CC(N)Cc1cn(C)c2ccc3c(c12)CCCO3` (stereo not drawn) (as salt: hydrochloride) [Example 1, 1-Methyl-2-(3-methyl3,7,8,9-tetrabydro-pyrano[3,2-e]indol-1-yl)-ethylamine hydrochloride] gave a melting point of 214 to 217 °C.
For the compound `C[C@@H](N)Cc1c[nH]c2ccc3c(c12)CCCO3` [Example 4, (R)-1-Methyl-2-(3,7,8,9-tetrahydro-pyrano[3,2-e]indol-1-yl)ethylamine hydrochloride], on 5-HT2 receptor, the Emax amounted to 109% and the 50% effective concentration (EC50) amounted to 111 nM.
In the case of `CC(N)Cc1c[nH]c2ccc3c(c12)CCCO3.Cl` (stereo not drawn) [Example 3, 1-Methyl-2-(3,7,8,9-tetrahydro-pyrano[3,2-e]indol-1-yl)-ethylamine hydrochloride], on 5-HT2 receptor, the Emax came out at 81%. Also, the EC50 on 5-HT2 receptor stood at 116 nM. The “Percent IOP Reduction ± SEM” value in series [1] (setting [2]) amounted to 16.0 ± 3.79%; in series [1] (setting [3]) it was 28.0 ± 5.49%; in series [1] (setting [4]), 22.9 ± 6.70%.
